According to US20060045953A1 (priority 2004, published 2006):

Each molecule was assayed against T1, hT1R1/hT1R3 umami receptor (Homo sapiens, UniProt Q7RTX0+Q7RTX1) (assay: In vitro hT1R1/hT1R3 umami taste receptor activation assay (FLIPR, dose response)). Conditions: Table A, Umami Amides; read-out: Umami EC50.
T1 construct: expressed in transfected cells; host or cells: HEK293 derivative stably expressing Gα15, clone I-17, expression induced with mifepristone
T1 sequence (Q7RTX1 21-841): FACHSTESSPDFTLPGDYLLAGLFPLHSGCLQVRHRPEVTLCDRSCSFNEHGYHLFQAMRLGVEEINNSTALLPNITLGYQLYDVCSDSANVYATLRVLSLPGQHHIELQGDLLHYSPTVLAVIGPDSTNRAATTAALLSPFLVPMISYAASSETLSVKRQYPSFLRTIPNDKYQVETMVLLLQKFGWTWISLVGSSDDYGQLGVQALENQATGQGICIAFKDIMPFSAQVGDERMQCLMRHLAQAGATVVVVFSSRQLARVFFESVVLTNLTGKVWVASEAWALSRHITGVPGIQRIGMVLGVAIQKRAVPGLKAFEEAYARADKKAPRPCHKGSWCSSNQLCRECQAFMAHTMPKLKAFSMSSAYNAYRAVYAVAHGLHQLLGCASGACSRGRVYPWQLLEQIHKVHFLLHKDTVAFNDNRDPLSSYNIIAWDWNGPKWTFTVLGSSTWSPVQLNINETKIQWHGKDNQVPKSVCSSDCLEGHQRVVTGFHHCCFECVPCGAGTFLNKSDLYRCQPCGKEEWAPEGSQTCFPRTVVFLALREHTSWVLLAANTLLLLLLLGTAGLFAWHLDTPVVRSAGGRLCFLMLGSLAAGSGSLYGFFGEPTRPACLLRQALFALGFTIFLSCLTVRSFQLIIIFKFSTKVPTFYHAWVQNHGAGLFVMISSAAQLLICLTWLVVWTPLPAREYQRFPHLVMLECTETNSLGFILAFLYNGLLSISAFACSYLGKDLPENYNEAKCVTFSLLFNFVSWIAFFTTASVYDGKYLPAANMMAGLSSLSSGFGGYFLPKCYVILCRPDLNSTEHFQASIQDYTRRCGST
T1 sequence (Q7RTX0 21-852): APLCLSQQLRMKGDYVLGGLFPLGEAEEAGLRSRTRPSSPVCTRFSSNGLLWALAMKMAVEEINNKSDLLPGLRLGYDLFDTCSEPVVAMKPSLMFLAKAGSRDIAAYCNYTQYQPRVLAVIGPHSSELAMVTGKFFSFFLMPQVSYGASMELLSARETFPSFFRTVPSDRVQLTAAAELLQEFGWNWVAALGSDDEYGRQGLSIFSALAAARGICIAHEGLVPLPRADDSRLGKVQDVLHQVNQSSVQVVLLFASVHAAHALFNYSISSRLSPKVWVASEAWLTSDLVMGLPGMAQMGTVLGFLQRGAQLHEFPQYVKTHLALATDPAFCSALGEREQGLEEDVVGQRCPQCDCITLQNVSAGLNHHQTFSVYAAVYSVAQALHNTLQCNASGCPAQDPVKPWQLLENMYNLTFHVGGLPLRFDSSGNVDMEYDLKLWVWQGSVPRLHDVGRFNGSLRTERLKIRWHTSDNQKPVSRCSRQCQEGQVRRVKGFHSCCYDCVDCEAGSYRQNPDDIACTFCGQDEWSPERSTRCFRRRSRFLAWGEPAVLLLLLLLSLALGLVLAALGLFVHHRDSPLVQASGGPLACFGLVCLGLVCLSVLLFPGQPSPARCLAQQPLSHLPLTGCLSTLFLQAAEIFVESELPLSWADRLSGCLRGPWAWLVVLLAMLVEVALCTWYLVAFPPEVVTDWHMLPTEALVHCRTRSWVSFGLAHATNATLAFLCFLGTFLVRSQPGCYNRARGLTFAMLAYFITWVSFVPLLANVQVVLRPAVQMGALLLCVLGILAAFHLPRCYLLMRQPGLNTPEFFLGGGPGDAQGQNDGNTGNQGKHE
Assay type: cell-based

SMILES	EC50 [nM]
CCCC(COC)NC(=O)c1ccc(OC)c(C)c1 (stereo not shown) [Example A97, 4-methoxy-N-(1-methoxypentan-2-yl)-3-methylbenzamide]	850
COc1ccc(C(=O)NC(CO)CC(C)C)cc1Cl (stereo not shown) [Example A98, 3-chloro-N-(1-hydroxy-4-methylpentan-2-yl)-4-methoxybenzamide]	880
COC(=O)[C@@H](CC(C)C)NC(=O)c1cccc(C)c1 [Example A99, (R)-methyl 4-methyl-2-(3-methylbenzamido)pentanoate]	890
COc1ccc(C(=O)NC(C)c2ccc(C)cc2)cc1Cl (stereo not shown) [Example A100, 3-chloro-4-methoxy-N-(1-p-tolylethyl)benzamide]	1100
CCCC(CCC)NC(=O)c1ccc(OC)cc1O [Example A101, N-(heptan-4-yl)-2-hydroxy-4-methoxybenzamide]	1160
Cc1cc(C(=O)NC2CCCc3ccccc32)ccc1O (stereo not shown) [Example A102, 4-hydroxy-3-methyl-N-(1,2,3,4-tetrahydronaphthalen-1-yl)benzamide]	1320
CCOC(=O)[C@H]1CCCC[C@H]1NC(=O)c1ccc(OC)c(Cl)c1 [Example A103, (1S,2R)-ethyl 2-(3-chloro-4-methoxybenzamido)cyclohexanecarboxylate]	1360
COc1ccc(CNC(=O)c2ccccc2-c2ccccc2)c(OC)c1 [Example A104, Biphenyl-2-carboxylic acid 2,4-dimethoxy-benzylamide]	1370
C=Cc1ccc(C(=O)N[C@H]2CCCc3ccccc32)cc1 [Example A105, (S)-N-(1,2,3,4-tetrahydronaphthalen-1-yl)-4-vinylbenzamide]	1380
COc1ccc(C(=O)NC2CCc3ccccc32)cc1Cl (stereo not shown) [Example A106, 3-chloro-N-(2,3-dihydro-1H-inden-1-yl)-4-methoxybenzamide]	1390
Cc1ccc(C(=O)N[C@H]2CCc3ccccc32)cc1C [Example A112, (S)-N-(2,3-dihydro-1H-inden-1-yl) 3,4-dimethylbenzamide]	790
CCOc1ccc(C(=O)N[C@H]2CCc3ccccc32)cc1C [Example A113, (S)-N-(2,3-dihydro-1H-inden-1-yl)-4-ethoxy-3-methylbenzamide]	850
COc1cc(C(=O)N[C@@H]2CCCc3ccccc32)nc(OC)n1 [Example A114, (R)-2,6-dimethoxy-N-(1,2,3,4-tetrahydronaphthalen-1-yl)pyrimidine 4-carboxamide]	2350
O=C(N[C@H]1CCOc2ccccc21)c1cccc(Cl)c1O [Example A115, (s)-3-chloro-N-(chroman-4-yl)-2-hydroxybenzamide]	5000
COc1ccc(C(=O)NC2CCc3cccc(C)c32)cc1C (stereo not shown) [Example A129, 4-methoxy-3-methyl-N-(7-methyl-2,3-dihydro-1H-inden-1-yl)benzamide]	1030

Further lines, results first:

EC50 [nM]	SMILES
740	COC(=O)[C@@H](CC(C)C)NC(=O)c1cc(C)c(OC)c(C)c1 [Example A95, (R)-methyl 2-(4-methoxy-3,5-dimethylbenzamido)-4-methylpentanoate]
760	CCC(NC(=O)c1ccc(OC)c(C)c1)c1ccc(OC)cc1 (stereo not shown) [Example A96, 4-methoxy-N-(1-(4-methoxyphenyl)propyl)-3-methylbenzamide]
70	COc1ccc2c(c1)CCCC2NC(=O)c1cccc(OC)c1N (stereo not shown) [Example A107, 2-amino-3-methoxy-N-(6-methoxy-1,2,3,4-tetrahydronaphthalen-1-yl)benzamide]
90	COc1cccc(C(=O)N[C@@H]2CCCc3ccccc32)c1N [Example A108, (R)-2-amino-3-methoxy-N-(1,2,3,4-tetrahydronaplithalen-1-yl)benzamide]
80	COc1ccc(C(=O)N[C@H]2CCCc3ccccc32)cc1C [Example A109, (S)-4-methoxy-3-methyl-N-(1,2,3,4-tetrahydronaphthalen-1-yl)benzamide]
300	COc1ccc2c(c1)CCC2NC(=O)c1ccc(O)c(C)c1 (stereo not shown) [Example A110, 4-hydroxy-N-(5-methoxy-2,3-dihydro-1H-inden-1-yl)-3-methylbenzamide]
660	Cc1cc(C(=O)N[C@H]2CCc3ccccc32)ccc1O [Example A111, (S)-N-(2,3-dihydro-1H-inden-1-yl)-4-hydroxy-3-methylbenzamide]
10	CCCC(CCC)NC(=O)c1cccc(CC)c1 [Example A116, 3-ethyl-N-(heptan-4-yl)benzamide]
30	CCCC(CCC)NC(=O)c1cc(COC)c(CC)o1 [Example A117, 5-ethyl-N-(heptan-4-yl)-4-(methoxymethyl)furan-2-carboxamide]
30	CCCC(CCC)NC(=O)c1cccc(SC)c1 [Example A118, N-(heptan-4-yl)-3-(methylthio)benzamide]
50	CCCC(CCC)NC(=O)c1ccc2c(c1)NCCC2 [Example A119, N-(heptan-4-yl)-1,2,3,4-tetrahydroguinoline-7-carboxamide]
80	CCCC(CCC)NC(=O)c1ccc(OC)c([N+](=O)[O-])c1 [Example A120, N-(heptan-4-yl)-4-methoxy-3-nitrobenzamide]
150	CCCC(CCC)NC(=O)c1cc2c(s1)CCC2 [Example A121, N-(heptan-4-yl)-5,6-dihydro-4H-cyclopenta[b]thiophene-2-carboxamide]
220	CCCC(CCC)NC(=O)c1cc(OC)nc(OC)n1 [Example A122, N-(heptan-4-yl)-2,6-dimethoxypyrimidine-4-carboxamide]
510	CCCC(CCC)NC(=O)c1coc2ccccc12 [Example A123, N-(heptan-4-yl)benzofuran-3-carboxamide]
10	Cc1ccc(C(=O)NC2CCCCC2C)cc1C (stereo not shown) [Example A124, 3,4-dimethyl-N-(2-methylcyclohexyl)benzamide]
20	COc1cccc(C(=O)NC2CCCCC2C)c1N (stereo not shown) [Example A125, 2-amino-3-methoxy-N-(2-methylcyclohexyl)benzamide]
40	COc1ccc2c(c1)CCC2NC(=O)c1cccc(OC)c1N (stereo not shown) [Example A126, 2-amino-3-methoxy-N-(5-methoxy-2,3-dihydro-1H-inden-1-yl)benzamide]
140	CCCC(CCC)NC(=O)c1cccc(C)c1N [Example A127, 2-amino-N-(heptan-4-yl)-3-methylbenzamide]
400	CCCC(CCC)NC(=O)c1ccc(-c2cnco2)cc1 [Example A128, N-(heptan-4-yl)-4-(oxazol-5-yl)benzamide]
160	CCCC(CCC)NC(=O)c1cc2cccc(OC)c2o1 [Example A130, N-(heptan-4-yl)-7-methoxybenzofuran-2-carboxamide]

Same assay, conditions: Table B, Umami Oxalamides; read-out: Umami EC50

EC50 [nM]	SMILES
180	COc1ccc(CNC(=O)C(=O)NCCc2ccco2)c(OC)c1 [Example B1, N1-(2,4-dimethoxybenzyi)-N2-(2-(furan-2-yl)ethyl)oxalamide]
190	CCOc1ccc(CNC(=O)C(=O)NCCc2ccc(C)cn2)c(OC)c1 [Example B2, N1-(4-ethoxy-2-methoxybenzyl)-N2-(2-(5-methylpyndm-2-yl)ethyl)oxalamide]
810	Cc1c(CNC(=O)C(=O)NCCc2ccccn2)sc2ccccc12 [Example B3]
1220	CC(C)Oc1ccccc1CNC(=O)C(=O)NCCc1ccccn1 [Example B4, N1-(2-isopropoxybenzyl)-N2-(2-(pyridin-2-yl)ethyl)oxalamide]
